Literature values in patent US20040116351A1, “Method for enhancing the natural reward system for exercise” (FAST BALANCE, INC., priority 2002, published 2004).

Settings: administered PEA

NCCc1ccccc1 [PEA, phenylethylamine]
Time PEA lasts in the body: ≤ 10 min
